From patent EP4810508A1, “ARABINOSE DERIVATIVE COMPOUND, AND COMPOSITION COMPRISING SAME FOR PREVENTING OR TREATING DEGENERATIVE BRAIN DISEASES” (Digmbio. Inc., priority 2023, dated 2025)
Like-named read-outs stand apart in the source and are kept apart here.

Test system: HRE/Luc/HEK293 cells
Assay: HRE (Hypoxia Response Element) luciferase assay
Assay type: cell-based, human
Conditions: for fold induction at 10 µM / fold induction at 100 µM: Homo sapiens; for HRE expression: low concentration of 1 µM
Experimental: • (a) HRE assay: Confirmation of increased in HRE expression levels by the test substance relative to the vehicle in HRE/Luc/HEK293 cells • * Less than a twofold increase at 100 µM, • ** More than a twofold increase at 100 µM, • *** More than a twofold increase at 10 µM, • **** More than a twofold increase at 1 µM, • Not performed.
It has been reported that in the brains of AD patients, blood supply is mostly insufficient, resulting in oxygen levels being up to 50% lower than those of normal individuals, leading to increased oxidative stress (ROS) and neuroinflammation. It has also been studied that when the HIF-1α (hypoxia inducible factor-1) factor binds to the HRE (hypoxia response element), it increases VEGF (vascular endothelial growth factor), which promotes the formation of new blood vessels, thereby increasing oxygen levels in the brain and helping to inhibit nerve cell damage.
A reporter gene containing luciferase, capable of verifying the level of HRE expression, was inserted into HEK-293 human embryonic kidney cells, and HRE/Luc/HEK293 cells were constructed by inserting a plasmid (HRE/Luc) with luciferase attached downstream of the HRE promoter that binds to HIF-1α using lipofectamine (Invitrogen).
To perform HRE luciferase analysis, HRE/Luc/HEK293 cells were seeded in 96-well culture plates at a cell density of 4 x 10^4 per well in minimal essential medium (MEM) containing 10% fetal bovine serum. After one day, the cell medium was removed and replaced with medium mixed with various concentrations of example compounds. Six hours after compound pretreatment, HRE/Luc/HEK293 cells were cultured under hypoxic conditions (O2 0.1%) for 18 hours. Subsequently, the cells were washed with phosphate buffer, lysed with lysis buffer, and then the luciferase reagent (Promega) for luciferase analysis was added. Afterward, changes in HRE expression levels associated with HIF-1 signaling were evaluated by measuring luminescence using an Infinite200 (Tecan).

[1] = HEK293, 18 h, Table 2 (Examples 37-74, 52), read-out: HKt-increasing 10uM
[2] = HEK293, 18 h, Table 2 (Examples 37-74, 52), read-out: HKt-increasing 100uM
[3] = HEK293, fold increase of HRE expression, hypoxic conditions (O2 0.1%) 18 hours, Table 2, read-out: HRE-increasing 10uM
[4] = HEK293, fold increase of HRE expression, hypoxic conditions (O2 0.1%) 18 hours, Table 2, read-out: HRE-increasing 100uM
[5] = HEK293, 18 h, Table 2 (Examples 75-109, 114), read-out: HRE-inceasing 10uM
[6] = HEK293, 18 h, Table 2 (Examples 75-109, 114), read-out: HRE-inceasing 100uM

Compound | fold induction at 10 µM [1] | fold induction at 100 µM [2] | fold induction at 10 µM [5] | fold induction at 100 µM [6] | other results
COc1ccc(Cc2ccc(O[C@H]3OC[C@H](O)[C@H](O)[C@H]3O)c(Cl)c2)cc1 [Example 51, (2R,3R,4S,5S)-2-(2-chloro-4-(4-methoxybenzyl)phenoxy)tetrahydro-2H-pyran-3,4,5-triol] | 1.3 | 2.9 | – | – | –
CC(C)c1ccc(Oc2ccc(O[C@@H]3C[C@@H](O)[C@@H](O)CO3)cc2)cc1 [Example 66, (3S,4R,6R)-6-(4-(4-isopropylphenoxy)phenoxy)tetrahydro-2H-pyran-3,4-diol] | 2.9 | 2.2 | – | – | –
COc1ccc(Cc2ccc(O[C@@H]3OC[C@H](O)[C@H](O)[C@H]3O)cc2)cc1 [Example 4] | – | – | – | – | fold induction at 10 µM [3]: 1.1; fold induction at 100 µM [4]: < 1; HRE assay (increase in HRE expression levels by the test substance relative to the vehicle in HRE/Luc/HEK293 cells): α
CC(C)c1ccc(Oc2ccc(O[C@H]3OC[C@@H](O)[C@H](O)[C@H]3O)c(F)c2)cc1 [Example 101, (2R,3R,4S,5R)-2-(2-fluoro-4-(4-isopropylphenoxy)phenoxy)tetrahydro-2H-pyran-3,4,5-triol] | – | – | 3.7 | 2.5 | –
CCc1ccc2c(-c3ccc(O[C@@H]4OC[C@H](O)[C@H](O)[C@H]4O)cc3)coc2c1 [Example 96, (2S,3R,4S,5S)-2-(4-(6-ethylbenzofuran-3-yl)phenoxy)tetrahydro-2H-pyran-3,4,5-triol] | – | – | 2.6 | 2.9 | –
CC(C)c1ccc(Oc2ccc(O[C@H]3OC[C@H](O)[C@H](O)[C@H]3O)c(Cl)c2)cc1 [Example 57, (2R,3R,4S,5S)-2-(2-chloro-4-(4-isopropylphenoxy)phenoxy)tetrahydro-2H-pyran-3,4,5-triol] | 3.2 | 2.8 | – | – | HRE expression: more than threefold
COc1ccc(Cc2ccc(O[C@H]3OC[C@H](O)[C@H](O)[C@H]3O)cc2)c(F)c1 [Example 50, (2R,3R,4S,5S)-2-(4-(2-fluoro-4-methoxybenzyl)phenoxy)tetrahydro-2H-pyran-3,4,5-triol] | 1 | 1.4 | – | – | –
COc1ccc2oc(-c3ccc(O[C@@H]4OC[C@H](O)[C@H](O)[C@H]4O)c(Cl)c3)nc2c1 [Example 102, (2S,3R,4S,5S)-2-(2-chloro-4-(5-methoxybenzo[d]oxazol-2-yl)phenoxy)tetrahydro-2H-pyran-3,4,5-triol] | – | – | 3.1 | 1.8 | HRE expression: more than threefold
CC(C)c1ccc(Oc2ccc(O[C@H]3OC[C@H](O)[C@H](O)[C@H]3N=[N+]=[N-])cc2)cc1 [Example 69, (3S,4R,5R,6R)-5-azido-6-(4-(4-isopropylphenoxy)phenoxy) tetrahydro-2H-pyra-3,4-diol] | 1.7 | 3 | – | – | –
CC(C)c1ccc(Cc2ccc(O[C@H]3OC[C@@H](O)[C@H](O)[C@H]3O)cc2)cc1 [Example 43, (2R,3R,4S,5R)-2-(4-(4-isopropylbenzyl)phenoxy)tetrahydro-2H-pyran-3,4,5-triol] | 3.3 | 2.5 | – | – | HRE expression: more than threefold
COc1ccc(C(=O)c2ccc(O[C@H]3OC[C@H](O)[C@H](O)[C@H]3O)cc2)cc1 [Example 71, (4-methoxyphenyl)(4-(((2R,3R,4S,5S)-3,4,5-trihydroxytetrahydro-2H-pyran-2-yl)oxy)phenyl)methanone] | 1.3 | 2 | – | – | –
CCOc1ccc(Cc2ccc(O[C@H]3OC[C@H](O)[C@H](O)[C@H]3O)cc2)cc1 [Example 39, (2R,3R,4S,5S)-2-(4-(4-ethoxybenzyl)phenoxy) tetrahydro-2H-pyran-3,4,5-triol] | 1.1 | 1.3 | – | – | –
COc1ccc2oc(-c3ccc(O[C@H]4OC[C@H](O)[C@H](O)[C@H]4O)c(Cl)c3)nc2c1 [Example 103, (2R,3R,4S,5S)-2-(2-chloro-4-(5-methoxybenzo[d]oxazol-2-yl)phenoxy)tetrahydro-2H-pyran-3,4,5-triol] | – | – | 2.6 | 2.9 | –
COc1ccc(Cc2ccc(O[C@H]3OC[C@H](O)[C@H](O)[C@H]3OC(=O)CCCCCCCCCN)cc2)cc1 [Example 79, (2R,3R,4S,5S)-4,5-dihydroxy-2-(4-(4-methoxybenzyl)phenoxy)tetrahydro-2H-pyran-3-yl 10-aminodecanoate] | – | – | 1 | 1.7 | –
COc1ccc(Cc2ccc(O[C@H]3OC[C@H](O)[C@H](O)[C@H]3N=[N+]=[N-])cc2)cc1 [Example 77, (3S,4R,5R,6R)-5-azido-6-(4-(4-methoxybenzyl)phenoxy)tetrahydro-2H-pyran-3,4-diol] | – | – | 1 | 1.3 | –
O[C@@H]1[C@@H](O)[C@@H](Oc2ccc(Cc3cc(C(F)(F)F)cc(C(F)(F)F)c3)cc2)OC[C@@H]1O [Example 16, (2R,3R,4S,5S)-2-(4-(3,5-bis(trifluoromethyl)benzyl)phenoxy) tetrahydro-2H-pyran-3,4,5-triol] | – | – | – | – | fold induction at 10 µM [3]: 1; fold induction at 100 µM [4]: < 1
CC(C)c1ccc2nc(-c3ccc(O[C@@H]4OC[C@H](O)[C@H](O)[C@H]4O)cc3)oc2c1 [Example 89, (2S,3R,4S,5S)-2-(4-(6-isopropylbenzo[d]oxazol-2-yl)phenoxy)tetrahydro-2H-pyran-3,4,5-triol] | – | – | 2.8 | < 1 | –
CC(C)c1ccc(-c2ccc(O[C@H]3OC[C@H](O)[C@H](O)[C@H]3O)cc2)cc1 [Example 86, (2R,3R,4S,5S)-2-((4'-isopropyl-[1,1'-biphenyl]-4-yl)oxy) tetrahydro-2 H-pyran-3,4,5-triol] | – | – | 1.9 | 3.2 | –
CC(C)c1ccc(-c2ccc(Cc3ccc(O[C@H]4OC[C@H](O)[C@H](O)[C@H]4O)cc3)cc2)cc1 [Example 52, (2R,3R,4S,5S)-2-(4-((4'-isopropyl-[1,1'-biphenyl]-4-yl)methyl)phenoxy)tetrahydro-2H-pyran-3,4,5-triol] | 2 | 3.6 | – | – | –
O[C@@H]1[C@@H](O)[C@@H](Oc2ccc(Cc3ccc4ccccc4c3)cc2)OC[C@@H]1O [Example 19, (2R,3R,4S,5S)-2-(4-(naphthalen-2-ylmethyl)phenoxy) tetrahydro-2H-pyran-3,4,5-triol] | – | – | – | – | fold induction at 10 µM [3]: 1.3; fold induction at 100 µM [4]: 1.8
COc1ccc(Cc2ccc(O[C@H]3OC[C@H](O)[C@H](O)[C@H]3OC)cc2)cc1 [Example 5, (3S,4S,5R,6R)-5-methoxy-6-(4-(4-methoxybenzyl)phenoxy)tetrahydro-2H-pyran-3,4-diol] | – | – | – | – | fold induction at 10 µM [3]: 1.2; fold induction at 100 µM [4]: 1.9
COc1ccc2oc(-c3ccc(O[C@H]4OC[C@@H](O)[C@H](O)[C@H]4O)cc3)nc2c1 [Example 93, (2R,3R,4S,5R)-2-(4-(5-methoxybenzo[d]oxazol-2-yl)phenoxy)tetrahydro-2H-pyran-3,4,5-triol] | – | – | 2.8 | 2.3 | –
CC(C)c1ccc(Oc2ccc(O[C@H]3OC[C@H](O)[C@H](O)[C@H]3N)cc2)cc1 [Example 70, (3S,4R,5R,6R)-5-amino-6-(4-(4-isopropylphenoxy)phenoxy)tetrahydro-2H-pyran-3,4-diol] | 1.2 | 3.1 | – | – | –
